Measurements reported in ChEMBL document CHEMBL1201862, “PubChem BioAssay data set” (2004).
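Tested at 5 concentrations; 48 h exposure; 96-well plates; endpoints linearly interpolated, else capped at highest concentration. GI50 marks 50% less growth.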 Active and inactive are the calls of the source. Cut-off read from the data, not from the text of the source: active = GI50 up to about 1.1 µM and inactive = higher.

Experiments:
Experiment in all cases: NCI anticancer screen, dose series, 48 h
OVCAR-8 = test system: OVCAR-8
COLO 205 = test system: COLO 205
786-0 = test system: 786-0
KM12 = test system: KM12
LOX IMVI = test system: LOX IMVI
U-251 = test system: U-251
SK-MEL-2 = test system: SK-MEL-2
HOP-92 = test system: HOP-92
SNB-78 = test system: SNB-78
NCI-H23 = test system: NCI-H23
HL-60 = test system: HL-60
SF-268 = test system: SF-268
A498 = test system: A498
SF-539 = test system: SF-539
HCT-116 = test system: HCT-116
MDA-MB-231 = test system: MDA-MB-231
MCF7 = test system: MCF7
MDA-N = test system: MDA-N
T47D = test system: T47D
NCI/ADR-RES = test system: NCI/ADR-RES

| SMILES | GI50 (OVCAR-8) | GI50 (COLO 205) | GI50 (786-0) | GI50 (KM12) | GI50 (LOX IMVI) | GI50 (U-251) | GI50 (SK-MEL-2) | GI50 (HOP-92) | GI50 (SNB-78) | GI50 (NCI-H23) | GI50 (HL-60) | GI50 (SF-268) | GI50 (A498) | GI50 (SF-539) | GI50 (HCT-116) | GI50 (MDA-MB-231) | GI50 (MCF7) | GI50 (MDA-N) | GI50 (T47D) | GI50 (NCI/ADR-RES) |
| --- | --- | --- | --- | --- | --- | --- | --- | --- | --- | --- | --- | --- | --- | --- | --- | --- | --- | --- | --- | --- |
| Clc1ccc(C[P+](c2ccccc2)(c2ccccc2)c2ccccc2)cc1Cl | 3.05 µM (inactive) | 1.55 µM (inactive) | 4.85 µM (inactive) | 2.69 µM (inactive) | 1.55 µM (inactive) | 1.63 µM (inactive) | 2.15 µM (inactive) | 1.62 µM (inactive) | 25.8 µM (inactive) | 2.62 µM (inactive) | 1.03 µM (active) | 3.22 µM (inactive) | 12.6 µM (inactive) | 4.4 µM (inactive) | 1.93 µM (inactive) | – | – | – | – | – |
| CCCCCCCCCCNC(=S)OC | 48.2 µM (inactive) | – | 49.3 µM (inactive) | – | 15.8 µM (inactive) | 33.1 µM (inactive) | – | 13.4 µM (inactive) | 53.3 µM (inactive) | > 100 µM (inactive) | 16.7 µM (inactive) | 63 µM (inactive) | 46.2 µM (inactive) | 64.7 µM (inactive) | 37.9 µM (inactive) | – | – | – | – | – |
| CCCCc1c2c(nc3c1CCCC3=O)C(=O)CCC2 | > 100 µM (inactive) | > 100 µM (inactive) | > 100 µM (inactive) | > 100 µM (inactive) | > 100 µM (inactive) | > 100 µM (inactive) | > 100 µM (inactive) | > 100 µM (inactive) | > 100 µM (inactive) | > 100 µM (inactive) | > 100 µM (inactive) | > 100 µM (inactive) | > 100 µM (inactive) | > 100 µM (inactive) | > 100 µM (inactive) | – | – | – | – | – |
| CC1(C)CCN2C(=O)C34CCCC3CC21S4 (stereo unspecified) | > 100 µM (inactive) | > 100 µM (inactive) | > 100 µM (inactive) | > 100 µM (inactive) | > 100 µM (inactive) | > 100 µM (inactive) | > 100 µM (inactive) | > 100 µM (inactive) | – | > 100 µM (inactive) | > 100 µM (inactive) | > 100 µM (inactive) | > 100 µM (inactive) | > 100 µM (inactive) | > 100 µM (inactive) | > 100 µM (inactive) | > 100 µM (inactive) | > 100 µM (inactive) | > 100 µM (inactive) | > 100 µM (inactive) |
| CSc1ccc(/C=C2\N=C(c3ccccc3)N(/N=C3\C(=O)Nc4ccccc43)C2=O)cc1 | 88.3 µM (inactive) | > 100 µM (inactive) | > 100 µM (inactive) | > 100 µM (inactive) | > 100 µM (inactive) | > 100 µM (inactive) | > 100 µM (inactive) | > 100 µM (inactive) | – | > 100 µM (inactive) | > 100 µM (inactive) | > 100 µM (inactive) | > 100 µM (inactive) | > 100 µM (inactive) | > 100 µM (inactive) | > 100 µM (inactive) | > 100 µM (inactive) | > 100 µM (inactive) | > 100 µM (inactive) | > 100 µM (inactive) |
| O=C1C=C(C2=CC(=O)C(=O)c3ccccc32)c2ccccc2C1=O | 20.2 µM (inactive) | 18 µM (inactive) | 13 µM (inactive) | 18.6 µM (inactive) | 3.87 µM (inactive) | 5.47 µM (inactive) | 19.5 µM (inactive) | 11.3 µM (inactive) | – | 5.07 µM (inactive) | 3.03 µM (inactive) | 13.5 µM (inactive) | 46.6 µM (inactive) | 19.4 µM (inactive) | 6.65 µM (inactive) | 15.6 µM (inactive) | 9.98 µM (inactive) | 2.02 µM (inactive) | 19.5 µM (inactive) | 23.2 µM (inactive) |
| CC[C@@]1(O)C(=O)OCc2c1cc1n(c2=O)Cc2c-1nc1ccccc1c2/C=N\NC(=O)C(N)CO (stereo partly specified) | 0.596 µM (active) | 32.1 µM (inactive) | 0.34 µM (active) | 5.92 µM (inactive) | 0.329 µM (active) | 0.232 µM (active) | 32.4 µM (inactive) | 1.87 µM (inactive) | – | 0.371 µM (active) | 0.335 µM (active) | 0.0643 µM (active) | 1.65 µM (inactive) | 0.138 µM (active) | 1.02 µM (active) | 28.4 µM (inactive) | 0.27 µM (active) | 6.52 µM (inactive) | 0.239 µM (active) | 0.785 µM (active) |
| O=C(/C=C/c1ccc(OCc2ccccc2)c(OCc2ccccc2)c1)OCc1ccccc1 | > 100 µM (inactive) | > 100 µM (inactive) | > 100 µM (inactive) | > 100 µM (inactive) | > 100 µM (inactive) | > 100 µM (inactive) | > 100 µM (inactive) | > 100 µM (inactive) | – | > 100 µM (inactive) | > 100 µM (inactive) | > 100 µM (inactive) | > 100 µM (inactive) | > 100 µM (inactive) | > 100 µM (inactive) | > 100 µM (inactive) | > 100 µM (inactive) | > 100 µM (inactive) | > 100 µM (inactive) | > 100 µM (inactive) |
| CCOP(=O)(OCC)C(NC(=O)OCC(Cl)(Cl)Cl)n1nnc(C(=O)OC)c1C(=O)OC (stereo unspecified) | > 100 µM (inactive) | > 100 µM (inactive) | > 100 µM (inactive) | > 100 µM (inactive) | > 100 µM (inactive) | > 100 µM (inactive) | > 100 µM (inactive) | > 100 µM (inactive) | – | > 100 µM (inactive) | > 100 µM (inactive) | > 100 µM (inactive) | > 100 µM (inactive) | > 100 µM (inactive) | > 100 µM (inactive) | > 100 µM (inactive) | > 100 µM (inactive) | > 100 µM (inactive) | > 100 µM (inactive) | > 100 µM (inactive) |
| OCCN1CCN(CC/C=C2/c3ccccc3Sc3ccc(Cl)cc32)CC1 | – | 9.73 µM (inactive) | – | 9.57 µM (inactive) | 8.81 µM (inactive) | 12.9 µM (inactive) | 14.9 µM (inactive) | 8.45 µM (inactive) | 15.8 µM (inactive) | 15.7 µM (inactive) | 1.76 µM (inactive) | 14.6 µM (inactive) | 14.5 µM (inactive) | 12.9 µM (inactive) | 8.47 µM (inactive) | – | – | – | – | – |
| CC1=C(C(=O)NCc2ccccc2)C(c2ccc(C3C(C(=O)NCc4ccccc4)=C(C)NC(C)=C3C(=O)NCc3ccccc3)cc2)C(C(=O)NCc2ccccc2)=C(C)N1 | 7.03 µM (inactive) | 7.57 µM (inactive) | 15.6 µM (inactive) | 11.4 µM (inactive) | – | 3.96 µM (inactive) | 18.4 µM (inactive) | 17.8 µM (inactive) | 9.46 µM (inactive) | 14.7 µM (inactive) | 6.27 µM (inactive) | 15.1 µM (inactive) | 17.7 µM (inactive) | 2.13 µM (inactive) | 3.02 µM (inactive) | – | – | – | – | – |
| COc1ccc(-c2onc(-c3ccc([N+](=O)[O-])cc3)c2C2=NCCCN2)cc1 | 81.1 µM (inactive) | 43.6 µM (inactive) | > 100 µM (inactive) | > 100 µM (inactive) | 51.9 µM (inactive) | > 100 µM (inactive) | > 100 µM (inactive) | – | > 100 µM (inactive) | > 100 µM (inactive) | 36.9 µM (inactive) | > 100 µM (inactive) | – | > 100 µM (inactive) | 38.9 µM (inactive) | – | – | – | – | – |
| CN(C)CCCCN1c2ccccc2Sc2ccc(C(=O)c3ccccc3)cc21 | 3.33 µM (inactive) | 1.64 µM (inactive) | 1.82 µM (inactive) | 2.02 µM (inactive) | 1.8 µM (inactive) | 2.41 µM (inactive) | 2.71 µM (inactive) | 2.44 µM (inactive) | – | 6.59 µM (inactive) | 1.85 µM (inactive) | 5.6 µM (inactive) | 13.8 µM (inactive) | 3.29 µM (inactive) | 2.18 µM (inactive) | 2.11 µM (inactive) | 1.93 µM (inactive) | 2.65 µM (inactive) | 3.59 µM (inactive) | 4.39 µM (inactive) |
| CC(Oc1ccc(OCC2CCCCC2)cc1)C(=O)N(CCO)CCO (stereo unspecified) | > 100 µM (inactive) | – | > 100 µM (inactive) | > 100 µM (inactive) | > 100 µM (inactive) | > 100 µM (inactive) | > 100 µM (inactive) | – | > 100 µM (inactive) | > 100 µM (inactive) | > 100 µM (inactive) | > 100 µM (inactive) | > 100 µM (inactive) | 23.6 µM (inactive) | > 100 µM (inactive) | – | – | – | – | – |
| CC(=O)c1ccccc1NS(=O)(=O)c1ccc2nc(C)n(NS(=O)(=O)c3ccccc3C(C)=O)c(=O)c2c1 | > 100 µM (inactive) | > 100 µM (inactive) | > 100 µM (inactive) | > 100 µM (inactive) | > 100 µM (inactive) | > 100 µM (inactive) | > 100 µM (inactive) | > 100 µM (inactive) | – | > 100 µM (inactive) | > 100 µM (inactive) | > 100 µM (inactive) | > 100 µM (inactive) | > 100 µM (inactive) | > 100 µM (inactive) | > 100 µM (inactive) | > 100 µM (inactive) | > 100 µM (inactive) | > 100 µM (inactive) | > 100 µM (inactive) |
| N=C(N)N/N=C/c1nc2n(c1[N+](=O)[O-])CCS2 | 15.7 µM (inactive) | 14 µM (inactive) | 38.6 µM (inactive) | 25 µM (inactive) | 15.7 µM (inactive) | 15.7 µM (inactive) | 17.5 µM (inactive) | > 100 µM (inactive) | – | 14.5 µM (inactive) | 22.5 µM (inactive) | 10.6 µM (inactive) | 43.3 µM (inactive) | 29 µM (inactive) | 21.9 µM (inactive) | 29 µM (inactive) | 15 µM (inactive) | 32.1 µM (inactive) | 17.3 µM (inactive) | > 100 µM (inactive) |
